Source: US20230085307A1, “PYRIDAZINONE COMPOUND AND HERBICIDE” (NISSAN CHEMICAL CORPORATION, priority 2019, published 2023)

What was measured:
[1] = system: southern crabgrass; assay: Test Example 5: herbicidal effect by foliage application, plastic box (Table 20, symbol F); assay type: in vivo, southern crabgrass (Digitaria ciliaris); details: foliage application, 320 g/ha, three weeks after application
In short: (§1)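 Foliar spray test: emulsion formulation diluted in water to a set application rate, sprayed onto 14-day-old plants raised in diluvial soil at 25° C to 30° C under glass. Both herbicidal effect and crop effect rated visually three weeks later.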

[2] = system: rice flat sedge; assay: Test Example 3: herbicidal effect by foliage application, Wagner pot (Table 18, symbol E); assay type: in vivo, rice flat sedge (Cyperus iria); details: 320 g/ha
In short: (§2)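 Plants were sown in alluvial soil held under 0.1–0.5 cm standing water and grown 14 days in a greenhouse at 25–30 °C. An emulsifiable formulation, water-diluted to the set dose, was then sprayed onto the foliage, and effects were scored three weeks later using previously defined criteria.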

[3] = system: windgrass; assay: Test Example 4: herbicidal effect by soil treatment (Table 19, symbol L); assay type: in vivo, windgrass (Apera spica-venti); details: amount of applied herbicide 320 g/ha
In short: (§3)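 Herbicidal effect was rated 3 weeks after treatment, using the scoring criteria of an earlier test. The compound, formulated as an emulsion and diluted in water to a set herbicide amount, had been sprayed uniformly on soil over freshly sown seeds. Growth took place in a greenhouse at 25° C. to 30° C.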

[4] = system: barnyard grass; assay: Test Example 3: herbicidal effect by foliage application, Wagner pot (Table 18, symbol H); assay type: in vivo, barnyard grass (Echinochloa crus-galli); details: 320 g/ha
In short: as §2

[5] = system: lambsquarters; assay: Test Example 5: herbicidal effect by foliage application, plastic box (Table 20, symbol O); assay type: in vivo, lambsquarters (Chenopodium album); details: foliage application, 320 g/ha, three weeks after application
In short: as §1

[6] = system: blackgrass; assay: Test Example 4: herbicidal effect by soil treatment (Table 19, symbol J); assay type: in vivo, blackgrass (Alopecurus myosuroides); details: amount of applied herbicide 320 g/ha
In short: as §3

[7] = system: chickweed; assay: Test Example 4: herbicidal effect by soil treatment (Table 19, symbol P); assay type: in vivo, common chickweed (Stellaria media); details: amount of applied herbicide 320 g/ha
In short: as §3

[8] = system: barnyard grass; assay: Test Example 5: herbicidal effect by foliage application, plastic box (Table 20, symbol H); assay type: in vivo, barnyard grass (Echinochloa crus-galli); details: foliage application, 320 g/ha, three weeks after application
In short: as §1

[9] = system: Italian ryegrass; assay: Test Example 5: herbicidal effect by foliage application, plastic box (Table 20, symbol K); assay type: in vivo, Italian ryegrass (Lolium multiflorum); details: foliage application, 320 g/ha, three weeks after application
In short: as §1

[10] = system: Chinese sprangletop; assay: Test Example 3: herbicidal effect by foliage application, Wagner pot (Table 18, symbol D); assay type: in vivo, chinese sprangletop (Leptochloa chinensis); details: 320 g/ha
In short: as §2

[11] = system: lambsquarters; assay: Test Example 4: herbicidal effect by soil treatment (Table 19, symbol O); assay type: in vivo, lambsquarters (Chenopodium album); details: amount of applied herbicide 320 g/ha
In short: as §3

[12] = system: wild oat; assay: Test Example 5: herbicidal effect by foliage application, plastic box (Table 20, symbol I); assay type: in vivo, wild oat (Avena fatua); details: foliage application, 320 g/ha, three weeks after application
In short: as §1

[13] = system: Japanese bulrush; assay: Test Example 1: herbicidal activity, application before weed generation under submerged conditions (Table 16, symbol B); assay type: in vivo, Japanese bulrush (Schoenoplectus juncoides); details: amount of applied herbicide 320 g/ha
In short: (§4)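 Emulsion formulation, water-diluted to set dose, was put onto the flooded surface (4 cm depth, alluvial soil) the same day weeds were sown and 2.5-leaf rice transplanted. After 3 weeks at 25-30 °C under glass, each species was rated 0 (≤5% kill) to 5 (≥90% kill).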

[14] = system: persian speedwell; assay: Test Example 4: herbicidal effect by soil treatment (Table 19, symbol R); assay type: in vivo, Persian speedwell (Veronica persica); details: amount of applied herbicide 320 g/ha
In short: as §3

[15] = system: southern crabgrass; assay: Test Example 4: herbicidal effect by soil treatment (Table 19, symbol F); assay type: in vivo, southern crabgrass (Digitaria ciliaris); details: amount of applied herbicide 320 g/ha
In short: as §3

[16] = system: late watergrass; assay: Test Example 1: herbicidal activity, application before weed generation under submerged conditions (Table 16, symbol A); assay type: in vivo, late watergrass (Echinochloa oryzicola); details: amount of applied herbicide 320 g/ha
In short: as §4

[17] = system: blackgrass; assay: Test Example 5: herbicidal effect by foliage application, plastic box (Table 20, symbol J); assay type: in vivo, blackgrass (Alopecurus myosuroides); details: foliage application, 320 g/ha, three weeks after application
In short: as §1

[18] = system: green foxtail; assay: Test Example 4: herbicidal effect by soil treatment (Table 19, symbol G); assay type: in vivo, green foxtail (Setaria viridis); details: amount of applied herbicide 320 g/ha
In short: as §3

[19] = system: oval-leafed pondweed; assay: Test Example 1: herbicidal activity, application before weed generation under submerged conditions (Table 16, symbol C); assay type: in vivo, oval-leafed pondweed (Monochoria vaginalis); details: amount of applied herbicide 320 g/ha
In short: as §4

[20] = system: Italian ryegrass; assay: Test Example 4: herbicidal effect by soil treatment (Table 19, symbol K); assay type: in vivo, Italian ryegrass (Lolium multiflorum); details: amount of applied herbicide 320 g/ha
In short: as §3

[21] = system: velvetleaf; assay: Test Example 5: herbicidal effect by foliage application, plastic box (Table 20, symbol M); assay type: in vivo, velvetleaf (Abutilon theophrasti); details: foliage application, 320 g/ha, three weeks after application
In short: as §1

[22] = system: redroot pigweed; assay: Test Example 4: herbicidal effect by soil treatment (Table 19, symbol N); assay type: in vivo, redroot pigweed (Amaranthus retroflexus); details: amount of applied herbicide 320 g/ha
In short: as §3

[23] = system: windgrass; assay: Test Example 5: herbicidal effect by foliage application, plastic box (Table 20, symbol L); assay type: in vivo, windgrass (Apera spica-venti); details: foliage application, 320 g/ha, three weeks after application
In short: as §1

[24] = system: velvetleaf; assay: Test Example 4: herbicidal effect by soil treatment (Table 19, symbol M); assay type: in vivo, velvetleaf (Abutilon theophrasti); details: amount of applied herbicide 320 g/ha
In short: as §3

[25] = system: barnyard grass; assay: Test Example 4: herbicidal effect by soil treatment (Table 19, symbol H); assay type: in vivo, barnyard grass (Echinochloa crus-galli); details: amount of applied herbicide 320 g/ha
In short: as §3

[26] = system: green foxtail; assay: Test Example 5: herbicidal effect by foliage application, plastic box (Table 20, symbol G); assay type: in vivo, green foxtail (Setaria viridis); details: foliage application, 320 g/ha, three weeks after application
In short: as §1

[27] = system: persian speedwell; assay: Test Example 5: herbicidal effect by foliage application, plastic box (Table 20, symbol R); assay type: in vivo, Persian speedwell (Veronica persica); details: foliage application, 320 g/ha, three weeks after application
In short: as §1

[28] = system: wild oat; assay: Test Example 4: herbicidal effect by soil treatment (Table 19, symbol I); assay type: in vivo, wild oat (Avena fatua); details: amount of applied herbicide 320 g/ha
In short: as §3

Compound	herbicidal effect on southern crabgrass (F) [1]	herbicidal effect on rice flat sedge (E) [2]	L: windgrass, herbicidal effect grade [3]	herbicidal effect on barnyard grass (H) [4]	herbicidal effect on lambsquarters (O) [5]	J: blackgrass, herbicidal effect grade [6]	P: chickweed, herbicidal effect grade [7]	herbicidal effect on barnyard grass (H) [8]	herbicidal effect on Italian ryegrass (K) [9]	herbicidal effect on Chinese sprangletop (D) [10]	O: lambsquarters, herbicidal effect grade [11]	herbicidal effect on wild oat (I) [12]	Herbicidal effect, B: Japanese bulrush [13]	R: persian speedwell, herbicidal effect grade [14]	F: southern crabgrass, herbicidal effect grade [15]	Herbicidal effect, A: late watergrass [16]	herbicidal effect on blackgrass (J) [17]	G: green foxtail, herbicidal effect grade [18]	Herbicidal effect, C: oval-leafed pondweed [19]	K: Italian ryegrass, herbicidal effect grade [20]	also measured
CCCC(=O)Oc1c(C)nn(C)c(=O)c1-c1c(-c2ccc(F)cc2OC)sc2cc(Cl)c(Cl)cc12 [5-052]	0 (Herbicidal rate of 5% or less (almost no effect))	5 (Herbicidal rate of 90% or more (almost completely withered))	0 (Herbicidal rate of 5% or less (almost no effect))	5 (Herbicidal rate of 90% or more (almost completely withered))	5 (Herbicidal rate of 90% or more (almost completely withered))	0 (Herbicidal rate of 5% or less (almost no effect))	3 (Herbicidal rate of 40% or more and less than 70%)	4 (Herbicidal rate of 70% or more and less than 90%)	0 (Herbicidal rate of 5% or less (almost no effect))	3 (Herbicidal rate of 40% or more and less than 70%)	3 (Herbicidal rate of 40% or more and less than 70%)	0 (Herbicidal rate of 5% or less (almost no effect))	3 (Herbicidal rate of 40% or more and less than 70%)	0 (Herbicidal rate of 5% or less (almost no effect))	0 (Herbicidal rate of 5% or less (almost no effect))	0 (Herbicidal rate of 5% or less (almost no effect))	4 (Herbicidal rate of 70% or more and less than 90%)	0 (Herbicidal rate of 5% or less (almost no effect))	0 (Herbicidal rate of 5% or less (almost no effect))	0 (Herbicidal rate of 5% or less (almost no effect))	herbicidal effect on velvetleaf (M) [21]: 4 (Herbicidal rate of 70% or more and less than 90%); N: redroot pigweed, herbicidal effect grade [22]: 2 (Herbicidal rate of 20% or more and less than 40%); herbicidal effect on windgrass (L) [23]: 4 (Herbicidal rate of 70% or more and less than 90%); M: velvetleaf, herbicidal effect grade [24]: 0 (Herbicidal rate of 5% or less (almost no effect)); H: barnyard grass, herbicidal effect grade [25]: 0 (Herbicidal rate of 5% or less (almost no effect)); herbicidal effect on green foxtail (G) [26]: 3 (Herbicidal rate of 40% or more and less than 70%); herbicidal effect on persian speedwell (R) [27]: 4 (Herbicidal rate of 70% or more and less than 90%); I: wild oat, herbicidal effect grade [28]: 0 (Herbicidal rate of 5% or less (almost no effect))
CCOc1cc(F)ccc1-c1sc2cc(Cl)c(Cl)cc2c1-c1c(O)c(C)nn(C)c1=O [5-053]	3 (Herbicidal rate of 40% or more and less than 70%)	5 (Herbicidal rate of 90% or more (almost completely withered))	0 (Herbicidal rate of 5% or less (almost no effect))	3 (Herbicidal rate of 40% or more and less than 70%)	3 (Herbicidal rate of 40% or more and less than 70%)	0 (Herbicidal rate of 5% or less (almost no effect))	0 (Herbicidal rate of 5% or less (almost no effect))	1 (Herbicidal rate of 5% or more and less than 20%)	0 (Herbicidal rate of 5% or less (almost no effect))	3 (Herbicidal rate of 40% or more and less than 70%)	0 (Herbicidal rate of 5% or less (almost no effect))	0 (Herbicidal rate of 5% or less (almost no effect))	3 (Herbicidal rate of 40% or more and less than 70%)	1 (Herbicidal rate of 5% or more and less than 20%)	0 (Herbicidal rate of 5% or less (almost no effect))	0 (Herbicidal rate of 5% or less (almost no effect))	0 (Herbicidal rate of 5% or less (almost no effect))	0 (Herbicidal rate of 5% or less (almost no effect))	0 (Herbicidal rate of 5% or less (almost no effect))	0 (Herbicidal rate of 5% or less (almost no effect))	herbicidal effect on velvetleaf (M) [21]: 5 (Herbicidal rate of 90% or more (almost completely withered)); N: redroot pigweed, herbicidal effect grade [22]: 3 (Herbicidal rate of 40% or more and less than 70%); herbicidal effect on windgrass (L) [23]: 3 (Herbicidal rate of 40% or more and less than 70%); M: velvetleaf, herbicidal effect grade [24]: 0 (Herbicidal rate of 5% or less (almost no effect)); H: barnyard grass, herbicidal effect grade [25]: 0 (Herbicidal rate of 5% or less (almost no effect)); herbicidal effect on green foxtail (G) [26]: 4 (Herbicidal rate of 70% or more and less than 90%); herbicidal effect on persian speedwell (R) [27]: 5 (Herbicidal rate of 90% or more (almost completely withered)); I: wild oat, herbicidal effect grade [28]: 0 (Herbicidal rate of 5% or less (almost no effect))
CCCC(=O)Oc1c(C)nn(C)c(=O)c1-c1c(-c2ccccc2OC)sc2cc(OC)c(Cl)cc12 [5-069]	4 (Herbicidal rate of 70% or more and less than 90%)	0 (Herbicidal rate of 5% or less (almost no effect))	0 (Herbicidal rate of 5% or less (almost no effect))	4 (Herbicidal rate of 70% or more and less than 90%)	3 (Herbicidal rate of 40% or more and less than 70%)	0 (Herbicidal rate of 5% or less (almost no effect))	0 (Herbicidal rate of 5% or less (almost no effect))	3 (Herbicidal rate of 40% or more and less than 70%)	0 (Herbicidal rate of 5% or less (almost no effect))	0 (Herbicidal rate of 5% or less (almost no effect))	0 (Herbicidal rate of 5% or less (almost no effect))	0 (Herbicidal rate of 5% or less (almost no effect))	1 (Herbicidal rate of 5% or more and less than 20%)	0 (Herbicidal rate of 5% or less (almost no effect))	0 (Herbicidal rate of 5% or less (almost no effect))	3 (Herbicidal rate of 40% or more and less than 70%)	0 (Herbicidal rate of 5% or less (almost no effect))	0 (Herbicidal rate of 5% or less (almost no effect))	0 (Herbicidal rate of 5% or less (almost no effect))	0 (Herbicidal rate of 5% or less (almost no effect))	herbicidal effect on velvetleaf (M) [21]: 3 (Herbicidal rate of 40% or more and less than 70%); N: redroot pigweed, herbicidal effect grade [22]: 2 (Herbicidal rate of 20% or more and less than 40%); herbicidal effect on windgrass (L) [23]: 2 (Herbicidal rate of 20% or more and less than 40%); M: velvetleaf, herbicidal effect grade [24]: 0 (Herbicidal rate of 5% or less (almost no effect)); H: barnyard grass, herbicidal effect grade [25]: 0 (Herbicidal rate of 5% or less (almost no effect)); herbicidal effect on green foxtail (G) [26]: 3 (Herbicidal rate of 40% or more and less than 70%); herbicidal effect on persian speedwell (R) [27]: 0 (Herbicidal rate of 5% or less (almost no effect)); I: wild oat, herbicidal effect grade [28]: 0 (Herbicidal rate of 5% or less (almost no effect))
